Measured values: patent US20020194634A1, “Insect control system” (priority 1999, published 2002)

Legend:
[1] = tested on: tobacco budworm Heliothis virescens; settings: cited from earlier work
[2] = tested on: acetylcholinesterase (AchE); settings: cited from earlier work
[3] = budworm larvae, within 2 hours of a topical acephate application; cited from earlier work
[4] = tested on: D. melanogaster (strain yw); test: 5-FU feeding toxicity in D. melanogaster yw strain; type: in vivo, Drosophila melanogaster; settings: 5-FU in food
Protocol: FIG. 5. Sensitivity of D. melanogaster (strain yw) to 5-FU. The yw strain is used routinely as recipient for generation of transgenic lines. Flies were reared in stadard Drosophila food supplemented with 5-FU at the indicated concentrations of 0 mM, 5 mM, 10 mM, 20 mM, 30 mM, 50 mM 5-FU. The x-axis represents time in days and the y-axis represents the number of flies. The data points represent the number of surviving flies.
FIG. 6. Dose-dependent lethality of D. melanogaster to 5-FU. The x-axis represents 5-FU concentration in mM and the y-axis represents the number of flies. Strain yw flies that were used in the above described transformation experiment were reared in standard Drosophila food supplemented with 5-FU at the indicated concentrations and viable flies were determined after 9 days. Each data point represents the mean±standard deviation of three separate experiments, each with 100 flies.
(§1) To evaluate the effects of 5-FU on a D. melanogaster yw strain, flies were raised first on medium containing 5-FU. Groups of 25 flies were cultured on food containing various concentrations of the drug. Four vials of each concentration of the drug were used for each experiment and three experiments were performed. The surviving flies per vial were counted over a period of time. […] No eggs were laid on food containing more than 20 mM of 5-FU.

[5] = tested on: non-transformed adult flies; test: 5-FC feeding of non-transformed adult flies; type: in vivo, Drosophila melanogaster; settings: 5-FC in food
Protocol: as §1
The effects of the pro-drug 5-FC on non-transformed adult flies were determined in a similar way.

[6] = tested on: CD transformed flies; test: 5-FC feeding of CD transformed flies; type: in vivo, Drosophila melanogaster; settings: female CD flies compared with male CD flies, 5-FC in food
Protocol: The effect of the pro-drug 5-FC on CD transformed flies was determined by raising the flies on food containing various concentrations of 5-FC.

[7] = tested on: transgenic Medfly (C. capitata) carrying the cytosine deaminase transgene; test: 5-FC susceptibility of transgenic Medfly expressing cytosine deaminase; type: in vivo, Ceratitis capitata
Protocol: Using standard methods, a genetic construct is prepared bearing the C. capitata VG1 promoter operably linked to a cDNA encoding E. coli cytosine deaminase. The cytosine deaminase gene, when introduced into insect cells, confers sensitivity to the pro-drug 5-FC.
The construct is inserted into the Minos transposon using conventional techniques and, in addition, those described in U.S. Pat. No. 5,840,865. The modified transposon is then used to transform Medfly according to standard transgenesis procedures.
Transgenic flies carrying the modified transposon are bred to create transgenic strains that express the cytosine deaminase enzyme. […] Moreover, cytosine deaminase expression is correlated with susceptibility to the pro-drug 5-FC administered in food to the flies.
A highly susceptible strain is bred and male flies isolated. Introduction of male flies into a population of non-transgenic flies results in rapid transfer of the transgene. Female flies which are born inheriting the transgene are susceptible to 5-FC, whilst male files remain resistant.

[8] = tested on: human colorectal carcinoma cells transfected with a construct expressing bacterial CD; settings: CD-transfected vs untransfected colorectal carcinoma cells; cited from earlier work
[9] = tested on: adult boll weevil Anthonomus granids Boheman; settings: cited from earlier work
[10] = tested on: nicotinergic acetylcholine receptor (nAcR); settings: methyl group at the 3 position of the imidazole ring; cited from earlier work
[11] = tested on: housefly; settings: cited from earlier work

For `COP(=O)(NC(C)=O)SC` (stereo not drawn) [Acephate, O, S-dimethyl acetylphosphoramidothicate], the “activity of acephate versus methamidophos” value [1] is given as “comparable activity”, the “AchE inhibition (in words)” value [2] is given as “not an AchE inhibitor” and the “methamidophos formed from acephate” value [3] is given as “small amount”.

With `O=c1[nH]cc(F)c(=O)[nH]1` [5-FU, 5-fluorouracil] the “concentration in food above which no eggs were laid” value [4] was “more than 20 mM” and the “concentration range causing efficient killing of flies” value ([4]; within 9 days) was 30 to 50 mM.

In the case of `Nc1nc(=O)[nH]cc1F` [5-FC, 5-fluorocytosine], the “reduction in fly viability” value [5] was “substantially no reduction”, the “viability with increasing 5-FC” value [6] was “substantial reduction in viability” and the “susceptibility to 5-FC” value ([7]; female Medflies inheriting the transgene) was “susceptible”. The “susceptibility to 5-FC” value ([7]; male Medflies carrying the transgene) was “resistant” and the “fold more sensitive to 5-FC than untransfected cells” value [8] was “about 600 fold”.

In the case of `COP(N)(=O)SC` (stereo not drawn) [methamidophos, O, S-dimethyl phosphoramidothicate], the “fold more toxic than acephate” value [9] is given as 75 fold, the “activity of acephate versus methamidophos” value [1] is given as “comparable activity” and the “AchE inhibition (in words)” value [2] is given as “potent”.

For `CN1CCN(Cc2ccc(Cl)nc2)C1=N[N+](=O)[O-]` [N-Me-imidacloprid], the “decrease in binding affinity to nAcR relative to imidacloprid” value [10] is listed as 100 fold and the “potency relative to imidacloprid” value [11] is listed as “as potent as imidacloprid”.
